From ChEMBL document CHEMBL5365500, “Development and Antibacterial Properties of 4-[4-(Anilinomethyl)-3-phenylpyrazol-1-yl]benzoic Acid Derivatives as Fatty Acid Biosynthesis Inhibitors” (J Med Chem, 2023)
≈ marks a conversion by molar mass, not a printed value. Calls of active or inactive are those of the source. The calls are words filed in the database; no cut-off is given here.

What was measured:
Staphylococcus aureus [1] = test: Antimicrobial activity against clinical isolate Staphylococcus aureus Smu9 assessed as inhibition of growth measured after 20 to 24 hrs incubation by CLSI method; format: functional; conditions: time 20-24 hrs
Staphylococcus aureus [2] = test: Antimicrobial activity against clinical isolate Staphylococcus aureus Smu21 assessed as inhibition of growth measured after 20 to 24 hrs incubation by CLSI method; format: functional; conditions: time 20-24 hrs
Staphylococcus aureus [3] = test: Antimicrobial activity against clinical isolate Staphylococcus aureus Smu57 assessed as inhibition of growth measured after 20 to 24 hrs incubation by CLSI method; format: functional; conditions: time 20-24 hrs
Staphylococcus aureus [4] = test: Antimicrobial activity against clinical isolate Staphylococcus aureus Smu81 assessed as inhibition of growth measured after 20 to 24 hrs incubation by CLSI method; format: functional; conditions: time 20-24 hrs
Staphylococcus aureus [5] = test: Antimicrobial activity against Staphylococcus aureus UAB159 assessed as inhibition of growth measured after 20 to 24 hrs incubation by CLSI method; format: functional; conditions: time 20-24 hrs
Staphylococcus aureus [6] = test: Antimicrobial activity against clinical isolate Staphylococcus aureus Smu109 assessed as inhibition of growth measured after 20 to 24 hrs incubation by CLSI method; format: functional; conditions: time 20-24 hrs
[7] = tested on: Staphylococcus epidermidis; test: Antimicrobial activity against antibiotic-resistant Staphylococcus epidermidis ATCC 700296 assessed as inhibition of visible growth measured after 20 to 24 hrs incubation by CLSI method; format: functional; conditions: time 20-24 hrs
Staphylococcus aureus [8] = test: Antimicrobial activity against antibiotic-resistant Staphylococcus aureus ATCC BAA-2312 assessed as inhibition of visible growth measured after 20 to 24 hrs incubation by CLSI method; format: functional; conditions: time 20-24 hrs
Staphylococcus aureus [9] = test: Antimicrobial activity against antibiotic-resistant Staphylococcus aureus ATCC 33592 assessed as inhibition of visible growth measured after 20 to 24 hrs incubation by CLSI method; format: functional; conditions: time 20-24 hrs
Staphylococcus aureus [10] = test: Antimicrobial activity against Staphylococcus aureus ATCC 25923 assessed as inhibition of visible growth measured after 20 to 24 hrs incubation by CLSI method; format: functional; conditions: time 20-24 hrs
Staphylococcus aureus [11] = test: In vivo antimicrobial activity against Staphylococcus aureus Newman infected in Caenorhabditis elegans AU37 nematodes assessed as viability of nematodes incubated for 5 days by susceptibility test; format: functional; conditions: 120 h, time 5 day
Staphylococcus aureus [12] = test: Antimicrobial activity against antibiotic-resistant Staphylococcus aureus ATCC 700699 assessed as inhibition of visible growth measured after 20 to 24 hrs incubation by CLSI method; format: functional; conditions: time 20-24 hrs
Bacillus subtilis = test: Antimicrobial activity against antibiotic-resistant Bacillus subtilis ATCC 6623 assessed as inhibition of visible growth measured after 20 to 24 hrs incubation by CLSI method; format: functional; conditions: time 20-24 hrs
Staphylococcus aureus [13] = test: In vivo antimicrobial activity against Staphylococcus aureus UAMS-1 infected in Caenorhabditis elegans AU37 nematodes assessed as viability of nematodes incubated for 5 days by susceptibility test; format: functional; conditions: UAMS-1, 120 h, time 5 day
Staphylococcus aureus [14] = test: In vivo antimicrobial activity against Staphylococcus aureus USA300 infected in Caenorhabditis elegans AU37 nematodes assessed as viability of nematodes incubated for 5 days by susceptibility test; format: functional; conditions: USA300, 120 h, time 5 day
Enterococcus faecalis [15] = test: Antimicrobial activity against antibiotic-susceptible Enterococcus faecalis ATCC 29212 assessed as inhibition of visible growth measured after 20 to 24 hrs incubation by CLSI method; format: functional; conditions: time 20-24 hrs
Staphylococcus aureus [16] = test: Antimicrobial activity against antibiotic-resistant Staphylococcus aureus ATCC 33591 assessed as inhibition of visible growth measured after 20 to 24 hrs incubation by CLSI method; format: functional; conditions: time 20-24 hrs
Enterococcus faecalis [17] = test: Antimicrobial activity against antibiotic-resistant Enterococcus faecalis ATCC 51299 assessed as inhibition of visible growth measured after 20 to 24 hrs incubation by CLSI method; format: functional; conditions: time 20-24 hrs
Enterococcus faecium = test: Antimicrobial activity against antibiotic-resistant Enterococcus faecium ATCC 700221 assessed as inhibition of visible growth measured after 20 to 24 hrs incubation by CLSI method; format: functional; conditions: time 20-24 hrs
HEK293 = test: Cytotoxicity against human HEK293 cells assessed as cell viability measured after 24 hrs by resazurin assay; format: toxicity, cell-based
Staphylococcus aureus [18] = test: Antimicrobial activity against methicilline-resistant Staphylococcus aureus ATCC 700699 persisters assessed as bacterial killing at 32 time of MIC concentration measured for every 2 hrs upto 8 hrs by Persisters time course assay; format: functional, organism-based

Compound	MIC [7]	MIC (Staphylococcus aureus [8])	MIC (Staphylococcus aureus [9])	MIC (Staphylococcus aureus [10])	MIC (Staphylococcus aureus [11])	MIC (Staphylococcus aureus [12])	MIC (Bacillus subtilis)	MIC (Staphylococcus aureus [13])	MIC (Staphylococcus aureus [14])	MIC (Enterococcus faecalis [15])	MIC (Staphylococcus aureus [16])	MIC (Enterococcus faecalis [17])	MIC (Enterococcus faecium)	other results
O=C(O)c1ccc(-n2cc(CNc3cc(Cl)c(F)c(Cl)c3)c(-c3ccc(C(F)(F)F)cc3)n2)cc1														MIC (Staphylococcus aureus [1]): 2 µg/mL (≈ 3.81 µM); MIC (Staphylococcus aureus [2]): 2 µg/mL (≈ 3.81 µM); MIC (Staphylococcus aureus [3]): 2 µg/mL (≈ 3.81 µM); MIC (Staphylococcus aureus [4]): 2 µg/mL (≈ 3.81 µM); MIC (Staphylococcus aureus [5]): 2 µg/mL (≈ 3.81 µM); MIC (Staphylococcus aureus [6]): 2 µg/mL (≈ 3.81 µM)
O=C(O)c1ccc(-n2cc(CNc3cc(Cl)cc(Cl)c3)c(-c3ccc(C(F)(F)F)cc3)n2)cc1														MIC (Staphylococcus aureus [1]): 1 µg/mL (≈ 1.98 µM); MIC (Staphylococcus aureus [2]): 2 µg/mL (≈ 3.95 µM); MIC (Staphylococcus aureus [3]): 2 µg/mL (≈ 3.95 µM); MIC (Staphylococcus aureus [4]): 2 µg/mL (≈ 3.95 µM); MIC (Staphylococcus aureus [5]): 2 µg/mL (≈ 3.95 µM); MIC (Staphylococcus aureus [6]): 2 µg/mL (≈ 3.95 µM)
O=C(O)c1ccc(-n2cc(CNc3cc(C(F)(F)F)cc(C(F)(F)F)c3)c(-c3ccc(F)cc3)n2)cc1	4 µg/mL (≈ 7.64 µM)	1 µg/mL (≈ 1.91 µM)	1 µg/mL (≈ 1.91 µM)	1 µg/mL (≈ 1.91 µM)	0.5 µg/mL (≈ 0.955 µM)	2 µg/mL (≈ 3.82 µM)	1 µg/mL (≈ 1.91 µM)	1 µg/mL (≈ 1.91 µM)	1 µg/mL (≈ 1.91 µM)	4 µg/mL (≈ 7.64 µM)	0.5 µg/mL (≈ 0.955 µM)	4 µg/mL (≈ 7.64 µM)	2 µg/mL (≈ 3.82 µM)	
O=C(O)c1ccc(-n2cc(CNc3ccc(Cl)c(Cl)c3)c(-c3ccc(F)cc3)n2)cc1	4 µg/mL (≈ 8.77 µM)	1 µg/mL (≈ 2.19 µM)	2 µg/mL (≈ 4.38 µM)	2 µg/mL (≈ 4.38 µM)	1 µg/mL (≈ 2.19 µM)	1 µg/mL (≈ 2.19 µM)	1 µg/mL (≈ 2.19 µM)	1 µg/mL (≈ 2.19 µM)	1 µg/mL (≈ 2.19 µM)	> 32 µg/mL	0.5 µg/mL (≈ 1.1 µM)	> 32 µg/mL	> 32 µg/mL	
O=C(O)c1ccc(-n2cc(CNc3cc(Cl)c(F)c(Cl)c3)c(-c3cccc(F)c3)n2)cc1	2 µg/mL (≈ 4.22 µM)	0.5 µg/mL (≈ 1.05 µM)	1 µg/mL (≈ 2.11 µM)	1 µg/mL (≈ 2.11 µM)	1 µg/mL (≈ 2.11 µM)	2 µg/mL (≈ 4.22 µM)	1 µg/mL (≈ 2.11 µM)	1 µg/mL (≈ 2.11 µM)	1 µg/mL (≈ 2.11 µM)	8 µg/mL (≈ 16.9 µM)	0.5 µg/mL (≈ 1.05 µM)	4 µg/mL (≈ 8.43 µM)	4 µg/mL (≈ 8.43 µM)	IC50 (HEK293): 20 µg/mL (≈ 42.2 µM)
O=C(O)c1ccc(-n2cc(CNc3cc(C(F)(F)F)cc(C(F)(F)F)c3)c(-c3cccc(F)c3)n2)cc1	4 µg/mL (≈ 7.64 µM)	1 µg/mL (≈ 1.91 µM)	1 µg/mL (≈ 1.91 µM)	2 µg/mL (≈ 3.82 µM)		2 µg/mL (≈ 3.82 µM)	1 µg/mL (≈ 1.91 µM)			4 µg/mL (≈ 7.64 µM)	1 µg/mL (≈ 1.91 µM)	2 µg/mL (≈ 3.82 µM)	2 µg/mL (≈ 3.82 µM)	Activity (Staphylococcus aureus [18]): Active
O=C(O)c1ccc(-n2cc(CNc3cc(Cl)cc(C(F)(F)F)c3)c(-c3ccc(F)c(F)c3)n2)cc1	2 µg/mL (≈ 3.94 µM)	0.5 µg/mL (≈ 0.985 µM)	1 µg/mL (≈ 1.97 µM)	1 µg/mL (≈ 1.97 µM)	0.5 µg/mL (≈ 0.985 µM)	1 µg/mL (≈ 1.97 µM)	0.5 µg/mL (≈ 0.985 µM)	1 µg/mL (≈ 1.97 µM)	1 µg/mL (≈ 1.97 µM)	4 µg/mL (≈ 7.88 µM)	0.5 µg/mL (≈ 0.985 µM)	2 µg/mL (≈ 3.94 µM)	2 µg/mL (≈ 3.94 µM)	
Cc1ccc(NCc2cn(-c3ccc(C(=O)O)cc3)nc2-c2ccc(F)cc2)cc1Cl	32 µg/mL (≈ 73.4 µM)	16 µg/mL (≈ 36.7 µM)	16 µg/mL (≈ 36.7 µM)	32 µg/mL (≈ 73.4 µM)		4 µg/mL (≈ 9.18 µM)	8 µg/mL (≈ 18.4 µM)			> 32 µg/mL	16 µg/mL (≈ 36.7 µM)	> 32 µg/mL	16 µg/mL (≈ 36.7 µM)	
O=C(O)c1ccc(-n2cc(CNc3cccc(OC(F)(F)F)c3)c(-c3ccc(F)cc3)n2)cc1	8 µg/mL (≈ 17 µM)	4 µg/mL (≈ 8.49 µM)	8 µg/mL (≈ 17 µM)	4 µg/mL (≈ 8.49 µM)		8 µg/mL (≈ 17 µM)	2 µg/mL (≈ 4.24 µM)			16 µg/mL (≈ 33.9 µM)	2 µg/mL (≈ 4.24 µM)	16 µg/mL (≈ 33.9 µM)	16 µg/mL (≈ 33.9 µM)	
O=C(O)c1ccc(-n2cc(CNc3ccc(F)cc3)c(-c3ccc(F)cc3)n2)cc1	32 µg/mL (≈ 78.9 µM)	32 µg/mL (≈ 78.9 µM)	16 µg/mL (≈ 39.5 µM)	16 µg/mL (≈ 39.5 µM)		16 µg/mL (≈ 39.5 µM)	16 µg/mL (≈ 39.5 µM)			> 32 µg/mL	16 µg/mL (≈ 39.5 µM)	> 32 µg/mL	> 32 µg/mL	
